According to patent publication US10098895B2, “Treatment of symptoms related to neurodegenerative disorders through pharmacological dermal activation of cranial nerves” (GLIA, LLC, priority 2016, dated 2018):
Entries after “also recorded” stand apart in the source; their conditions may differ.

Experiments:
[1] = tested on: herpes ophthalmicus and herpes keratitis; experiment: Example 8: herpes ophthalmicus and herpes keratitis patient; format: in vivo, human; conditions: dronabinol 0.5 mg twice daily to both ears
Excerpt: A patient experienced an episode of herpes ophthalmicus and herpes keratitis in September 2003, resulting in thinning melt of the left cornea, loss of vision, inflammation, neuralgia, and a rash of blisters to the left forehead, upper nose, and temple with a subsequent full left-face palsy droop, which required multiple cosmetic surgical procedures to provide some symmetry to the face and partial closure to the eyelids of the left eye.
No corneal graft to the left eye could be attempted due to recurrent thinning of the full cornea and inflammation of the vasculature. The patient was treated with ophthalmic prednisolone, topical and systemic antivirals, topical antibiotics, bandage lens, punctal plugs, and over-the-counter artificial tears and gels. This treatment regimen was continued until January 2011 when the cornea thinned to probable melt-through, necessitating corneal patch surgery. Just prior to the surgery, the patient's vision was measured at 20/2000, or finger vision.
The patient started applying 1% progesterone to their forehead twice daily just before corneal patch surgery planned for January 2011. The dose of progesterone was approximately 1 mg per application.
In September 2014, corneal tissue had sufficiently epithelialized at the perimeter to attempt a corneal graft, which was successfully completed. Progesterone 1% was applied daily to the forehead post-surgery. Within 9 months vision was restored to best correct vision pinhole 20/50.
In February 2015, the patient's visual acuity decreased as a result of the rejection of cells at the lower part of the graft. Moderate central staining continued to persist in a band where eyelids could not close. Intraocular pressure (TOP) in the left eye rose to 22 mmHg. The patient was placed on a treatment regimen that included Prednisolone Forte 6× plus Restasis for rejection 2× daily and oral valacycovir, together with mechanically taping the eyelid closed at night.
In May 2016, the patient initiated a course of twice daily dronabinol treatment, 0.5 mg each dose, to both ears. Through July, stabilization was achieved, and all other medications were discontinued. […] Visual acuity improved to 20/40.

[2] = tested on: Parkinson's disease symptoms; experiment: Example 1: Parkinson's disease patient, dermal application to forehead and ear conchae
Description: A person was diagnosed with the early stages of Parkinson's disease in December of 2014. Their symptoms included tremors in the hands, impaired short term memory, slow and uncontrolled rigid movements while walking and eating, and declining ocular blink function. The patient also had dry eyes with hyper-tearing, burning, and itching.
The patient was also treated with progesterone 1% on the forehead initially once daily beginning in March 2015. […] The progesterone was applied as needed for about a year.
Instead of the prescribed regimen, the patient began dermal application of dronabinol 1.25 mg 2 times daily to three sites: (i) the forehead, (ii) the concha of the left ear, and (iii) the concha of the right ear. Each dose of 1.25 mg was divided equally between the three application sites. This treatment regimen began Friday Jun. 10, 2016 concurrent with the discontinuation of rasagiline.
In February 2017, the patient, who suffers from debilitating moderate spinal stenosis, started taking Azilect (rasagiline) and carbidopa-levodopa to improve their walking and flexibility. […] The patient decided that, together with the prescribed medications, they would switch from dronabinol to topical testosterone gel applied to the forehead and ear conchae to see if this would impact their longstanding low testosterone levels.
In March 2017, topical testosterone gel application was instituted as an adjunct to is the prescribed Azilect and carbidopa-levodopa.
The patient voluntarily stopped topical testosterone for 3 weeks in June 2017. […] At the end of 3 weeks, topical testosterone was re-instituted as an adjunct to the prescribed medications.

[3] = tested on: herpes facial palsy; experiment: Example 9: functional facial motor control in herpes facial palsy; format: in vivo, human
Excerpt: A person had unilateral facial unilateral palsy stemming from 2003 herpes ophthalmicus and herpes keratitis. The left eye lids were unable to close to cover the central cornea without a forceful blink; neither were the lids able to open with the upper lid sagging and without elasticity or muscle control. This static condition was the baseline since the end of 2003 to May 2016, or nearly 13 years.
The left side of the face drooped, the left corner of the mouth drooled, and a noticeable asymmetry presented at rest. The upper lip could only slightly reveal the lowest pat of the upper teeth on the right side. There was minimal functional motor control of facial expression including upper lip. left side brow, eye lids, cheeks to mouth and chin lacked elasticity and functional motor control, leaving face fixed, expressionless, and asymmetrical.
The facial skin sagged as did the eye lids. […] His upper lip was partially frozen on the left side, and drooling was persistent. Lip and mouth expression as in smile was severely restricted.
Beginning in mid-May 2016, the patient began treatment twice daily with dronabinol 2.5 mg in oil, one-third of which was applied equally to the concha of the left ear, to the conchae of the right ear, and to the forehead.

[4] = tested on: essential tremor; experiment: Example 7: essential tremor subject with contact lens discomfort; format: in vivo, human
Description: A person developed persistent right hand tremors of a kinetic (non-resting) type that has been continuous over the past 6 years. […] This condition had not worsened over time. […] Initially, their doctor thought that these symptoms were stress related and they have been taking 2.5 mg of escitalopram for over 6 years. […] The subject was not on hormone replacement therapy or any other medication.
Concomitantly, the subject suffered from uncomfortable eyes, with a sticky burning sensation and development of blurred vision after about 5-6 hours of contact lens wear. For the past 3 years, the subject was administered 1% progesterone gel (1 mg per day) by dermal application to the forehead once per night. The progesterone gel prolonged comfortable contact lens wear time with sustained visual acuity from 5-6 hours to greater than 15 hours. […] After 2 years of treatment, the benefits of progesterone dermal application persisted for at least 3 days without treatment. There was no effect of the progesterone on their tremor symptoms.
After allowing for washout of progesterone for 3 days, they began forehead application of 0.5-0.75 mg dronabinol once daily at night.
The dronabinol administration regimen was altered by dividing equally the once daily dose of 0.5-0.75 mg dronabinol between the conchae of the left ear, the conchae of the right ear, and the forehead. […] Comfortable contact lens wear, with ease of insertion and removal, and visual acuity extends for 15 hours or more after dronabinol application.
Contact lens comfort wear duration was greater than 15 hours.
In April 2017, the subject, while still being treated with 1% progesterone applied to the forehead, instituted a once-daily low dose topical testosterone applied to the forehead and ear conchae to determine if doing so would produce a beneficial impact on further tremor reduction and in particular essential tremor triggered by caffeine consumption. […] They stopped the treatment to assess whether the tremor would return to pre-testosterone treatment levels. As of August 2017, the subject is without noticeable tremor. The caffeine trigger for tremor onset, which had been recognized throughout all treatments, has not re-appeared since the completion of the 4-week testosterone treatment. The subject continues on low-dose progesterone 1% applied daily to the forehead as the only treatment.

[5] = dronabinol 1.25 mg 2 times daily, forehead and both conchae, two weeks, no other medications
[6] = dronabinol 2.5 mg in oil twice daily divided between both conchae and forehead, 3 months

CCCCCc1cc(O)c2c(c1)OC(C)(C)[C@@H]1CCC(C)=C[C@@H]21 [dronabinol, (6aR,10aR)-6a,7,8,10a-tetrahydro-6,6,9-trimethyl-3-pentyl-6H-dibenzo[b,d]-pyran-1-ol]
corneal staining ([1]; May through July 2016): improve somewhat, but still moderate
graft rejected cells ([1]; May through July 2016): the number of rejected cells became fewer
visual acuity ([1]; May through July 2016): 20/40
intraocular pressure (printed TOP) ([1]; May through July 2016, from 22 mmHg): 16 mmHg
best corrected vision pinhole ([1]; beginning of August): 20/25
blink interval ([1]; beginning of August): approximately 24 second
corneal staining ([1]; beginning of August): staining improved to superficial
intraocular pressure (printed TOP) in both eyes ([1]; beginning of August): 18
rejection cells ([1]; beginning of August): no sign of rejection cells
Keratograph 5M non-invasive tear film break times (NIKBUTs) level ([1]; beginning of August, 0 = best): 0
stability of improvement ([2]; 3 months of dronabinol to conchae and forehead as sole Parkinson's medication): stable at the improved level
speech, thought and social interaction ([2]; dronabinol 1.25 mg 2 times daily divided between forehead and concha of both ears, within three days, washing out of rasagiline): more fluid speech, less searching for words, fewer thought gaps
bodily rigidity [2, 5]: significantly less bodily rigidity
depression [2, 5]: depression resolved in the absence of antidepressants
facial masking [2, 5]: decreased facial masking and more voluntary facial expressions; also recorded: decrease in facial masking
hand tremors [2, 5]: markedly reduced hand tremors
memory function [2, 5]: much improved memory function
motor skills and coordination [2, 5]: motor skills and coordination improved
postnasal drip, chest cough and asthmatic wheezing [2, 5]: persistent postnasal drip resolved, chest cough and asthmatic wheezing resolved
dry eyes ([2]; dronabinol 1.25 mg 2 times daily, forehead and both conchae, within three days): dry eyes resolved with no need for artificial tears
improvement of Parkinson's disease symptoms (motor, cognitive, emotional), reported by wife ([2]; dronabinol since Jun. 10, 2016 as sole medication, reported Jul. 27, 2016): 90%
cognitive function and other non-motor symptoms during tapering-off ([2]; tapering-off of dronabinol, already on Azilect and carbidopa-levodopa): rapidly deteriorated
adverse events ([2]; throughout low dose neural cranial treatment): no adverse events were noted
facial droop and drool ([3]; 3 months of dronabinol application to the ear conchae): droop ad drool significantly resolved
recurrence of facial palsy ([3]; after dronabinol was discontinued in August 2016): no recurrence of facial palsy
best corrected vision with pinhole [3, 6]: 20/25
conjunctival redness [3, 6]: improved significantly
control over facial expression muscles [3, 6]: regained control over facial expression muscles
early graft rejection [3, 6]: reversed
eye lid motor control [3, 6]: more motor control over both eye lids
persistent central corneal staining [3, 6]: resolved to a significant degree
tear film breakup time level by Keratograph 5M ([3]; dronabinol 2.5 mg in oil twice daily divided between both conchae and forehead, 3 months, 0 = best): 0
comfortable contact lens wear duration ([4]; 0.5-0.75 mg dronabinol once daily divided between both conchae and forehead): ≥ 15 h
hand tremor ([4]; 0.5-0.75 mg dronabinol once daily divided between both conchae and forehead, by the fourth day): hand tremor had noticeably reduced
hand tremor ([4]; 0.5-0.75 mg dronabinol once daily to forehead only, 2 weeks): without impacting their symptoms of hand tremor
reduction of essential tremor from pre-treatment levels, stable new baseline ([4]; after discontinuing dronabinol): about 50%
ocular discomfort ([4]; dronabinol USP 0.5 mg to 0.75 mg in an oil formulation to the forehead, substituted for progesterone): the same benefits to ocular discomfort was obtained
tremor amplitude after ceasing treatment ([4]; dronabinol ceased for 3 days, right hand): about 50 % of pre-treatment level
reduction in essential tremor from pre-treatment baseline ([4]; during dronabinol treatment): 80%
appetite ([4]; low dose topical dronabinol): unwanted increase in appetite
